Data published in patent US20120122730A1, “Methods for Quantitative Analyses of Kinase Inhibitor Selectivity Using Small Size Panels” (priority 2010, published 2012).

Tested on: panel of 287 distinct human protein kinases, three lipid kinases, and 27 disease-relevant mutant variants
Test: Weighted selectivity score from competition binding assays against a kinase panel
Settings: Kd thresholds <100 nM, <1 μM, <3 μM weighted; panel of 317 assays; FIG. 7
Protocol: In one embodiment, a kinase subset may be determined by using a computational method that can extract knowledge from large amounts of data from known cancer drug designs and find a subset of kinases. A first step in determining a kinase subset involves the use of data from competition binding assays where kinase inhibitors are evaluated against a panel of protein kinases. For each interaction, a quantitative dissociation constant (Kd) is needed.
In one embodiment, a quantitative description, called a weighted selectivity score, is developed for assessing kinome-wide compound reactivities by suitably coarse-graining the binding-affinity vector. […] The weighted selectivity score (normalized or not) is an unbiased measure that enables quantitative comparisons between compounds and the detailed differentiation and analysis of interaction patterns. […]
To validate a method of the present disclosure, data from a previous competition binding assays was used wherein 38 kinase inhibitors were evaluated against a panel of 287 distinct human protein kinases, three lipid kinases, and 27 disease-relevant mutant variants. […] Each compound was screened against the panel of 317 assays at a single concentration of 10 μM to identify candidate kinase targets, and for each interaction observed in this primary screen a quantitative dissociation constant was determined.

COc1ccc(COc2ccc(Cc3cnc(N)nc3N)cc2OC)cc1 [GW-2580]
weighted selectivity score (overall score): 3.5
